Results from patent US20250345512A1, “COMBINATION SODIUM-GLUCOSE COTRANSPORTER INHIBITOR (SGLTI) INSULIN THERAPY FOR GLYCEMIC CONTROL IN TYPE 1 DIABETES” (University of Virginia Patent Foundation, priority 2022, published 2025).

Tested on: participants with T1D
Assay: Randomized crossover clinical trial (NCT04201496): CGM glycemic outcomes with 5 mg daily empagliflozin adjunctive to AID (Control-IQ, CIQ) or PLGS (Basal-IQ, BIQ)
Format: in vivo, human
Conditions: for % CGM time <50 mg/dL (<2.8 mmol/L) / % CGM time <60 mg/dL (<3.3 mmol/L) / % CGM time <70 mg/dL (<3.9 mmol/L) / % CGM time >180 mg/dL (>10.0 mmol/L) / % CGM time >250 mg/dL (>13.9 mmol/L) / % CGM time >300 mg/dL (>16.7 mmol/L) / CGM HBGI / CGM LBGI: median (IQR)
Method: FIG. 2 presents a study analysis relative to baseline, control IQ (CIQ) (e.g., AID), and basal IQ (BIQ) (e.g., PLGS) implementation, according to investigation that is demonstrable of one or more embodiments herein. Therein, an experimental arm (G1, G2) providing an initial daily dose of 5 mg empagliflozin (EMPA) is depicted against a control arm (G3, G4) without such dosing (NOEMPA). Relative characteristics of the analysis are provided below.
Study Design: A single-center, randomized, controlled, unblinded, crossover clinical trial (NCT04201496) compared four parallel groups, two groups in the experimental arm (EMPA) with 5 mg daily empagliflozin as adjunctive therapy to PLGS or AID, and two groups in the control arm (NOEMPA) with no drug and with a PLGS system (Basal-IQ, Tandem Diabetes Care) or AID system (Control-IQ, Tandem Diabetes Care). The groups within each arm differed from one another in the order of the randomly assigned crossover technological intervention, relative to PLGS being followed by AID or AID being followed by PLGS, respectively (FIG. 4). The study protocol was approved by the University of Virginia Institutional Review Board (IRB). An investigational device exemption (IDE), including an investigational new drug (IND) application for empagliflozin, was approved by the FDA. Safety aspects were overseen by an external data and safety monitoring board (DSMB). Participants: Major inclusion criteria were T1D treated with insulin for at least one year, use of continuous subcutaneous insulin infusion therapy for at least six months, age 18-65 yrs., no use of glucose lowering agents other than insulin, and Hb1Ac<9% (75 mmol/mol). Randomization: A (1:1:1:1) randomization assigned participants to either Group 1, AID-EMPA (4 weeks) followed by PLGS-EMPA (2 weeks), Group 2, PLGS-EMPA (2 weeks) followed by AID-EMPA (4 weeks), Group 3, AID-NOEMPA (4 weeks) followed by PLGS-NOEMPA (2 weeks), and Group 4, PLGS-NOEMPA (2 weeks) followed by AID-NOEMPA (4 weeks). Procedures: After confirmation of eligibility, participants underwent study equipment and medication training (experimental arm), or only study equipment training (control arm). Study equipment consisted of Dexcom G6® CGM (Dexcom Inc., San Diego, CA), Contour® Next blood glucose (Ascensia Diabetes Care, Basel, Switzerland) and Precision Xtra® blood ketone meters (Abbott, Alameda, CA) with their respective test strips; infusion sets, and the use of the t:slim X2™ insulin pump with Basal-IQ or Control-IQ technologies (Tandem Diabetes Care, San Diego, CA), according to randomization. […] Participants in the experimental arm were asked to record two days of baseline ketone values before initiating the use of the study drug. Thereafter, participants were directed to use the study CGM with EMPA for 1-2 weeks. A tolerance to the medication was assessed prior to the starting of the next study phase, including adherence to the protocol, ketone testing 2-4 times per day with monitored values not greater than 0.6 mmol/L on at least two successive occasions (the first testing upon waking in a fasted state), no adverse events relating to perineal infection or symptomatic postural hypotension, and no evidence of significant hypoglycemia <54 mg/dL, or any other listed adverse effects of the medication. Participants in the control arm were directed to use the study CGM for 1-2 weeks. Sample Size: The total sample size was projected to be 40 participants, assuming 1) 1:1:1:1 randomization; 2) 90% power and type 1 error a=0.01, further reinforcing the feasibility of hierarchical analyses. The projected recruitment sample was n=50, to accommodate up to 20% attrition rate without sacrificing statistical power. Analytical methods: For the primary analysis, TIR during the day in the 4-week AID period was compared between the two EMPA groups versus the two NOEMPA groups using a linear mixed-effects regression model while adjusting for pre-randomization HbAlc and age. […]

[1] = overall, CIQ-EMPA vs. CIQ-NOEMPA, BIQ-EMPA vs. BIQ-NOEMPA
[2] = overall, PLGS-EMPA (see Tables 4 and 5)
[3] = overnight, CIQ-EMPA vs. BIQ-NOEMPA, BIQ-EMPA vs. CIQ-NOEMPA
[4] = overnight, CIQ-EMPA vs. CIQ-NOEMPA, BIQ-EMPA vs. BIQ-NOEMPA
[5] = overnight, PLGS-EMPA compared to PLGS-NOEMPA

Q: What does the source list for OC[C@H]1O[C@@H](c2ccc(Cl)c(Cc3ccc(O[C@H]4CCOC4)cc3)c2)[C@H](O)[C@@H](O)[C@@H]1O [BIQ-EMPA, empagliflozin]?
A: Difference: CGM LBGI (overall, CIQ-EMPA vs. BIQ-NOEMPA, BIQ-EMPA vs. CIQ-NOEMPA): 0.2; Difference: CGM HBGI [1]: −4.3; Difference: CGM LBGI [1]: 0.1; Difference: CGM SD [1]: -14.3 mg/dL; decrease in mean glucose overall [2]: 24 mg/dL; decrease in percent time in hyperglycemia [2]: 18.6%; % CGM time <70-140 mg/dL (<3.9-7.8 mmol/L) (overall, n = 16, mean ± SD): 56.8 ± 16.5%; % CGM time <70-180 mg/dL (<3.9-10.0 mmol/L) (overall, n = 16, mean ± SD): 79 ± 15.7%; CGM CV (%) (overall, n = 16, mean ± SD): 32.1 ± 3.7%; CGM SD (overall, n = 16, mean ± SD): 46 ± 14.6 mg/dL; % CGM time <50 mg/dL (<2.8 mmol/L) (overall, n = 16): 0(0-0.4) %; % CGM time <60 mg/dL (<3.3 mmol/L) (overall, n = 16): 0.5(0.2-0.9) %; % CGM time <70 mg/dL (<3.9 mmol/L) (overall, n = 16): 1.7(0.9-2.7) %; % CGM time >180 mg/dL (>10.0 mmol/L) (overall, n = 16): 15(6.7-22.7) %; % CGM time >250 mg/dL (>13.9 mmol/L) (overall, n = 16): 1.7(0.2-3.6) %; % CGM time >300 mg/dL (>16.7 mmol/L) (overall, n = 16): 0.2(0-0.6) %; CGM HBGI (overall, n = 16): 3.3(1.8-4.7); CGM LBGI (overall, n = 16): 0.7(0.6-1); Difference (95% CI): % CGM time <50 mg/dL (<2.8 mmol/L) [3]: −0.4 percentage points; Difference (95% CI): % CGM time >180 mg/dL (>10.0 mmol/L) [3]: −5.1 percentage points; Difference (95% CI): % CGM time >300 mg/dL (>16.7 mmol/L) [3]: −0.3 percentage points; Difference (95% CI): CGM CV (%) [3]: −3.1%; Difference (95% CI): CGM HBGI [3]: −1.1; Difference (95% CI): CGM LBGI [3]: 0.3; Difference (95% CI): CGM SD [3]: -8.2 mg/dL; Difference (95% CI): Mean CGM glucose [3]: -9.8 mg/dL; Difference (95% CI): % CGM time >180 mg/dL (>10.0 mmol/L) [4]: −18.2 percentage points; Difference (95% CI): % CGM time >250 mg/dL (>13.9 mmol/L) [4]: −13.9 percentage points; Difference (95% CI): % CGM time >300 mg/dL (>16.7 mmol/L) [4]: −4.8 percentage points; Difference (95% CI): CGM HBGI [4]: −6.2; Difference (95% CI): CGM LBGI [4]: 0.2; Difference (95% CI): CGM SD [4]: -17.2 mg/dL; decrease in time in hyperglycemia [5]: 7.6%; increase in percent TIR [5]: 17%; % CGM time 70-140 mg/dL (3.9-7.8 mmol/L) (overnight, n = 16, mean ± SD): 54 ± 21%; % CGM time 70-180 mg/dL (3.9-10.0 mmol/L) (overnight, n = 16, mean ± SD): 76 ± 21%; CGM CV (%) (overnight, n = 16, mean ± SD): 30.5 ± 4.2%; CGM SD (overnight, n = 16, mean ± SD): 44.5 ± 14 mg/dL; Mean CGM glucose (overnight, n = 16, mean ± SD): 145 ± 41 mg/dL; % CGM time <50 mg/dL (<2.8 mmol/L) (overnight, n = 16): 0(0-0.5) %; % CGM time <60 mg/dL (<3.3 mmol/L) (overnight, n = 16): 0.5(0.1-1.1) %; % CGM time <70 mg/dL (<3.9 mmol/L) (overnight, n = 16): 1.5(0.4-2.7) %; % CGM time >180 mg/dL (>10.0 mmol/L) (overnight, n = 16): 16.2(7-30.8) %; % CGM time >250 mg/dL (>13.9 mmol/L) (overnight, n = 16): 0.1(0-2.4) %; % CGM time >300 mg/dL (>16.7 mmol/L) (overnight, n = 16): 0(0-0.2) %; CGM HBGI (overnight, n = 16): 3.3(2.1-5.2); CGM LBGI (overnight, n = 16): 0.7(0.4-1.4); night-time in range, h out of 8 h (overnight, out of 8 h of the night-time, listed as PLGS-EMPA): 6 h
